According to US11040053B2, “Compositions and methods for activating “stimulator of interferon gene”13 dependent signalling” (CHINOOK THERAPEUTICS, INC., priority 2015, dated 2021):
“Also recorded” adds a separate entry of the source.

How the values were obtained:
hSTING(WT) [1] = molecular target: T1, hSTING(WT) (Homo sapiens, UniProt Q86WV6, H232R); assay: Differential scanning fluorometry (DSF) binding to purified hSTING WT; design: DNA encoding amino acids 140-379 (amino acid numbering corresponding to Swiss Prot Q86WV6); 6xHIS (N, cleaved yes); SUMO (N, cleaved yes); made in house; host or cells: Rosetta2 (DE3) E. coli; settings: for Tm shift compared with non fluorine substituted compounds and 2′3′-(G)(A), in words: FIG. 3, hSTING (WT); for binding relative to OH reference compound, in words / binding relative to naturally produced 2′3′-(G)(A), in words: Table 4 comment, wild type hSTING
Target sequence in this assay (Q86WV6 140-379 H232R): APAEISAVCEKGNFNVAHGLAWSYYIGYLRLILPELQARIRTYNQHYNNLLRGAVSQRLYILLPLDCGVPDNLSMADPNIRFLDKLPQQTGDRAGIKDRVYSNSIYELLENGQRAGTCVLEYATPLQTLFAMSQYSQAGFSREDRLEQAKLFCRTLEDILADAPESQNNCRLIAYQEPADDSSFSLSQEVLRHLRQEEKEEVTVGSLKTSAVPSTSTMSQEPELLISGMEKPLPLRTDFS

HAQ allele hSTING = molecular target: T2, HAQ allele hSTING (Homo sapiens, UniProt Q86WV6, G230A/H232R/R293Q); assay: Differential scanning fluorometry (DSF) binding to purified hSTING HAQ allele; settings: for binding relative to OH reference compound, in words / binding relative to naturally produced 2′3′-(G)(A), in words: Table 4 comment, HAQ allele hSTING
T2 construct: DNA encoding amino acids 140-379 (amino acid numbering corresponding to Swiss Prot Q86WV6); 6xHIS (N, cleaved yes); SUMO (N, cleaved yes); made in house; host or cells: Rosetta2 (DE3) E. coli
T2 sequence (Q86WV6 140-379 G230A/H232R/R293Q limits assumed): as the sequence (Q86WV6 140-379 H232R) above, with G91A, R154Q counted along it

hSTING(REF) [2] = molecular target: T3, hSTING(REF) (Homo sapiens, UniProt Q86WV6); assay: Differential scanning fluorometry (DSF) binding to purified hSTING REF allele; design: DNA encoding amino acids 140-379 (amino acid numbering corresponding to Swiss Prot Q86WV6); 6xHIS (N, cleaved yes); SUMO (N, cleaved yes); made in house; host or cells: Rosetta2 (DE3) E. coli; settings: for Tm shift compared with non fluorine substituted compounds and 2′3′-(G)(A), in words: FIG. 2, hSTING (REF); for binding relative to OH reference compound, in words / binding relative to naturally produced 2′3′-(G)(A), in words: Table 4 comment, REF allele hSTING
Target sequence in this assay (Q86WV6 140-379): as the sequence (Q86WV6 140-379 H232R) above, with R93H counted along it

hSTING(WT) [3] = molecular target: T1, hSTING(WT); assay: IFN-β luciferase reporter in HEK293T cells stably expressing hSTING(WT), digitonin permeabilization; settings: FIGS. 5A-B, 0.1 μM to 100 μM and 6.25 μM CDN
Target sequence in this assay (Q86WV6 whole entry H232R, the tested form may be a part): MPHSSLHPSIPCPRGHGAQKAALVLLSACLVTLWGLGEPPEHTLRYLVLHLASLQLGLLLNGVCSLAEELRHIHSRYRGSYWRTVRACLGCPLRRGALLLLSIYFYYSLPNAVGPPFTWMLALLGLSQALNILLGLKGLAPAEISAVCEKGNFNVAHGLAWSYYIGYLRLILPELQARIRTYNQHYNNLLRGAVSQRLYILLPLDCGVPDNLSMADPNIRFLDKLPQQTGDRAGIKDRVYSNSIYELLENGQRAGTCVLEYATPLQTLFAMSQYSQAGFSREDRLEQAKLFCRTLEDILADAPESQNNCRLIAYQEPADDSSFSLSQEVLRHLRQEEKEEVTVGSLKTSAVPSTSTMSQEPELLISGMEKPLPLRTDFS
Experimental: (§1) 24 hours later, cells were stimulated with native and synthetic CDN derivative molecules using digitonin permeabilization to ensure uniform uptake.
(§2) After 20 min, the stimulation mixtures were removed and 200 ul of DMEM media supplemented with 10% (vol/vol) fetal bovine serum, 1% L-Glutamine, and 1% Penicillin/Streptomycin was added. Cells were incubated an additional 6 hours (37° C., 5% CO2) and then cell lysates were prepared and reporter gene activity measured on a Spectramax M3 luminometer using the Dual-Glo Luciferase Assay System (Promega, catalog #E2920) as described by the manufacturer. IFNβ firefly luciferase reporter gene activity was normalized to TK renilla luciferase gene activity and plotted as fold induction over activity in unstimulated cells (mean+/−s.e.m.).

hSTING HAQ allele = molecular target: T4, hSTING HAQ allele (Homo sapiens, UniProt Q86WV6, G230A/H232R/R293Q/R71H); assay: IRF-3 inducible secreted luciferase reporter in THP1-Dual cells without digitonin; type: cell-based; settings: for activity relative to OH reference compound, in words: Table 5 comment, THP1 cells without digitonin
T4 construct: a human monocyte cell line containing the hSTING HAQ allele; host or cells: THP1-Dual cells
T4 sequence (Q86WV6 whole entry R71H/G230A/H232R/R293Q): as the sequence (Q86WV6 whole entry H232R, the tested form may be a part) above, with R71H, G230A, R293Q counted along it
In short: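 THP1-Dual cells were exposed for 30 min, washed, and cultured overnight at 37 °C in fresh RPMI/10% FBS. Secreted luciferase in the supernatant was read with QUANTI-Luc as the type I interferon signal. EC50 was taken from a 10-point serial-dilution dose-response curve.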

hSTING(REF) [4] = molecular target: T3, hSTING(REF); assay: IFN-β luciferase reporter in HEK293T cells stably expressing hSTING(REF), digitonin permeabilization; settings: FIGS. 6A-B, 0.1 μM to 100 μM and 6.25 μM CDN
Target sequence in this assay (Q86WV6 whole entry, the tested form may be a part): as the sequence (Q86WV6 whole entry H232R, the tested form may be a part) above, with R232H counted along it
Experimental: as §1, §2

B16.F10 = B16.F10 melanoma mouse model, intra-tumoral injection; type: in vivo, C57BL/6 female mice; settings: FIG. 15A, IT 10 or 100 μg, three injections, vs HBSS
Experimental: To assess the ability of the fluorinated derivative compounds to promote anti-tumor immunity in diverse murine tumor models, tumor cells were implanted (in 100 μL PBS) subcutaneously on the lower back of 6-8 week old C57BL/6 female mice. Treatments began when tumors reached a volume of approximately 100 mm^3, on approximately day 14 post tumor implantation (see table below for tumor type, number of cells, and day of IT injection). The CDN compounds were administered by IT injection (10 or 100 μg in a total volume of 40 μL HBSS), and repeated every three days for a total of three injections. The compounds 3′3′-RR-(2′F-A)(2′F-A) and 3′3′-RR-(2′F-G)(2′F-A) and control mice given vehicle only (40 μL HBSS) were dosed. Tumors were measured twice weekly.

[5] = DSF, 1 mg/ml STING AA140-379, ligand 1 mM
[6] = listed as 3′3′-RR-(2′F-A)(2′F-A)

Compound | Tm shift compared with non fluorine substituted compounds and 2′3′-(G)(A), in words (hSTING(WT) [1]) | binding relative to OH reference compound, in words (hSTING(WT) [1]) | binding relative to naturally produced 2′3′-(G)(A), in words (hSTING(WT) [1]) | binding relative to OH reference compound, in words (HAQ allele hSTING) | binding relative to naturally produced 2′3′-(G)(A), in words (HAQ allele hSTING) | Tm shift compared with non fluorine substituted compounds and 2′3′-(G)(A), in words (hSTING(REF) [2]) | binding relative to OH reference compound, in words (hSTING(REF) [2]) | binding relative to naturally produced 2′3′-(G)(A), in words (hSTING(REF) [2]) | IFNβ luciferase reporter induction by hSTING(WT), in words (hSTING(WT) [3]; listed as 3′3′-RR-(2′F-G)(2′F-A)) | activity relative to OH reference compound, in words (hSTING HAQ allele) | IFNβ luciferase reporter induction by hSTING(REF), in words (hSTING(REF) [4]) | tumor volume, in words (B16.F10) | hSTING Tm Shift WT (hSTING(WT) [1]; [5]) | hSTING Tm Shift HAQ (HAQ allele hSTING; [5]) | hSTING Tm Shift REF (hSTING(REF) [2]; [5]) | IFNβ luciferase reporter induction by hSTING(WT), in words (hSTING(WT) [3]; [6]) | EC50 (hSTING HAQ allele; without digitonin in THP1 cells (HAQ allele)) | tumor volume, in words (B16.F10; [6])
Nc1nc2c(ncn2[C@@H]2O[C@@H]3CO[P@@](=O)(S)O[C@H]4[C@@H](F)[C@H](n5cnc6c(N)ncnc65)O[C@@H]4CO[P@@](=O)(S)O[C@H]3[C@H]2F)c(=O)[nH]1 (stereo in doubt) [Compound 14, 2-Amino-9-((2R,3R,3aR,5R,7aR,9R,10R,10aR,12R,14aR)-9-(6-amino-9H-purin-9-yl)-3,10-difluoro-5,12-dimercapto-5,12-dioxidooctahydro-2H,7H-difuro [3,2-d:3′,2′-j][1,3,7,9]tetraoxa[2,8]diphosphacyclododecin-2-yl)-1,9-dihydro-6H-purin-6-one] | increased Tm shift | improved binding | improved binding | improved binding | improved binding | increased Tm shift | improved binding | improved binding | strongly induced IFNβ reporter activity by hSTING(WT); also recorded: more potently induced IFNβ reporter activity by hSTING(WT) than the compound 3′3′-(G)(A) | improved activity | strongly induced IFNβ reporter activity, to a level similar to the endogenous cellular ligand 2′3′-(G)(A) | induced significant tumor inhibition as compared to HBSS |  |  |  |  |  | 
Nc1ncnc2c1ncn2[C@@H]1O[C@@H]2CO[P@@](=O)(S)O[C@H]3[C@@H](F)[C@H](n4cnc5c(N)ncnc54)O[C@@H]3CO[P@@](=O)(S)O[C@H]2[C@H]1F [Compound 6, (2R,3R,3aR,5R,7aR,9R,10R,10aR,12R,14aR)-2,9-bis(6-amino-9H-purin-9-yl)-3,10-difluoro-5,12-dimercaptooctahydro-2H,7H-difuro[3,2-d:3′,2′-j][1,3,7,9]tetraoxa[2,8]diphosphacyclododecine 5,12-dioxide] | increased Tm shift | improved binding | improved binding | improved binding | improved binding | increased Tm shift | improved binding | improved binding |  | improved activity | strongly induced IFNβ reporter activity, to a level similar to the endogenous cellular ligand 2′3′-(G)(A) |  | 19.3 °C | 32.4 °C | 9.1 °C | induced higher levels of IFNβ reporter activity by hSTING(WT) than the non-fluorine substituted compounds; also recorded: stimulated higher levels of IFNβ reporter activity by hSTING(WT) when compared to the endogenous cellular ligand 2′3′-(G)(A) | 19 µM | induced significant tumor inhibition as compared to HBSS; also recorded: complete tumor regression at the 100 μg dose
